The results in this text go back to PubChem BioAssay AID212 (DTP/NCI, 2004).

The subject of this assay is BDF1 mice, colon carcinoma 38 sc, T/C %. As to the kind of experiment: NCI In Vivo Anticancer Drug Screen. Data for tumor model Colon Carcinoma 38 (subcutaneous) in B6D2F1 (BDF1) mice. An outline of the steps: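 Ratio of survival or tumor size, compound-treated animals relative to vehicle controls, in tumor-bearing mice.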
Where [1] appears, read: endpoint: median tumor weight (est.), dose: 25.0 mg/kg/injection, schedule: Q07DX002 (ip), vehicle: saline, higher = larger tumour.
The mark [2] stands for this setting: endpoint: median tumor weight (est.), dose: 6.25 mg/kg/injection, schedule: Q07DX002 (ip), vehicle: saline, higher = larger tumour.
Where [3] appears, read: endpoint: median tumor weight (est.), dose: 50.0 mg/kg/injection, schedule: Q07DX002 (ip), vehicle: Klucel (hydroxypropylcellulose) (HPC), higher = larger tumour.
Setting [4] is: endpoint: median tumor weight (est.), dose: 100.0 mg/kg/injection, schedule: Q07DX002 (ip), vehicle: Klucel (hydroxypropylcellulose) (HPC), higher = larger tumour.
[5] abbreviates: endpoint: median tumor weight (est.), dose: 200.0 mg/kg/injection, schedule: Q07DX002 (ip), vehicle: Klucel (hydroxypropylcellulose) (HPC), higher = larger tumour.
The mark [6] stands for this setting: endpoint: median tumor weight (est.), dose: 400.0 mg/kg/injection, schedule: Q07DX002 (ip), vehicle: Klucel (hydroxypropylcellulose) (HPC), higher = larger tumour.
[7] abbreviates: endpoint: median tumor weight (est.), dose: 12.5 mg/kg/injection, schedule: Q07DX002 (ip), vehicle: Klucel (hydroxypropylcellulose) (HPC), higher = larger tumour.
Where [8] appears, read: endpoint: median tumor weight (est.), dose: 3.12 mg/kg/injection, schedule: Q07DX002 (ip), vehicle: saline with Tween-80, higher = larger tumour.
[9] abbreviates: endpoint: median tumor weight (est.), dose: 6.25 mg/kg/injection, schedule: Q07DX002 (ip), vehicle: saline with Tween-80, higher = larger tumour.
The mark [10] stands for this setting: endpoint: median tumor weight (est.), dose: 50.0 mg/kg/injection, schedule: Q07DX002 (ip), vehicle: saline with Tween-80, higher = larger tumour.
The mark [11] stands for this setting: endpoint: median tumor weight (est.), dose: 200.0 mg/kg/injection, schedule: Q07DX002 (ip), vehicle: saline with Tween-80, higher = larger tumour.
[12] abbreviates: endpoint: median tumor weight (est.), dose: 12.5 mg/kg/injection, schedule: Q07DX002 (ip), vehicle: saline with Tween-80, higher = larger tumour.

Values joined by “and” are separate entries in the source; they are usually repeats but may differ in a detail not shown here. Equal entries are not always repeated. Records with an inconclusive call do not appear.

For the molecule `CCC(C(=O)O)C(=O)O.[NH-]CC1CCCC[N-]1.[Pt+2]`, the T/C reads like this: under setting [1], 305 % of control; (endpoint: median tumor weight (est.), dose: 50.0 mg/kg/injection, schedule: Q07DX002 (ip), vehicle: saline, higher = larger tumour) 404 % of control; (endpoint: median tumor weight (est.), dose: 100.0 mg/kg/injection, schedule: Q07DX002 (ip), vehicle: saline, higher = larger tumour) 209 % of control; (endpoint: median tumor weight (est.), dose: 200.0 mg/kg/injection, schedule: Q07DX002 (ip), vehicle: saline, higher = larger tumour) 239 % of control.

Take `COc1cc2cc(c1Cl)N(C)C(=O)CC(OC(=O)C(C)C)C1(C)OC1C(C)C1CC(O)(NC(=O)O1)C(OC)/C=C/C=C(C)C2` (configuration not stated): the T/C is, setting by setting: (endpoint: median tumor weight (est.), dose: 6.2 micrograms/kg/injection, schedule: Q07DX003 (ip), vehicle: saline + alcohol, higher = larger tumour) 109 % of control; (endpoint: median tumor weight (est.), dose: 12.5 micrograms/kg/injection, schedule: Q07DX003 (ip), vehicle: saline + alcohol, higher = larger tumour) 90 % of control; (endpoint: median tumor weight (est.), dose: 25.0 micrograms/kg/injection, schedule: Q07DX003 (ip), vehicle: saline + alcohol, higher = larger tumour) 88 % of control; (endpoint: median tumor weight (est.), dose: 50.0 micrograms/kg/injection, schedule: Q07DX003 (ip), vehicle: saline + alcohol, higher = larger tumour) 79 % of control; (endpoint: median tumor weight (est.), dose: 100.0 micrograms/kg/injection, schedule: Q07DX003 (ip), vehicle: saline + alcohol, higher = larger tumour) 93 % of control.

Consider `[Cl][Sn]([c]1ccccc1)[c]1ccccc1`, for which the T/C was 113 % of control under setting [2]; 108 % of control (endpoint: median tumor weight (est.), dose: 12.5 mg/kg/injection, schedule: Q07DX002 (ip), vehicle: saline, higher = larger tumour); 95 % of control (endpoint: median tumor weight (est.), dose: 12.5 mg/kg/injection, schedule: Q09DX002 (ip), vehicle: saline, higher = larger tumour); 89 % of control under setting [1]; 93 % of control (endpoint: median tumor weight (est.), dose: 25.0 mg/kg/injection, schedule: Q09DX002 (ip), vehicle: saline, higher = larger tumour).

For the molecule `Cc1c2c(ccc3ccccc32)c[n+]2ccccc12`, the T/C is 154 % of control (endpoint: median tumor weight (est.), dose: 3.12 mg/kg/injection, schedule: Q07DX002 (ip), vehicle: saline, higher = larger tumour); 118 % of control under setting [2]; 102 % of control (endpoint: median tumor weight (est.), dose: 12.5 mg/kg/injection, schedule: Q07DX002 (ip), vehicle: suspension in saline, higher = larger tumour); 107 % of control under setting [1]; 91 % of control (endpoint: median tumor weight (est.), dose: 25.0 mg/kg/injection, schedule: Q07DX002 (ip), vehicle: suspension in saline, higher = larger tumour).

Turning to `CN(N=O)C(=O)N[C@@H](C=O)[C@@H](O)[C@H](O)[C@H](O)CO`, the T/C was 110 % of control (endpoint: median survival time, dose: 23.0 mg/kg/injection, schedule: Q01DX010 (sc), vehicle: other, higher = longer survival); 100 % of control (endpoint: median survival time, dose: 37.0 mg/kg/injection, schedule: Q01DX010 (sc), vehicle: other, higher = longer survival); 115 % of control (endpoint: median survival time, dose: 60.0 mg/kg/injection, schedule: Q01DX010 (sc), vehicle: other, higher = longer survival); 78 % of control (endpoint: median tumor weight (est.), dose: 12.5 mg/kg/injection, schedule: Q07DX003 (ip), vehicle: other, higher = larger tumour); 54 % of control (endpoint: median tumor weight (est.), dose: 25.0 mg/kg/injection, schedule: Q07DX003 (ip), vehicle: other, higher = larger tumour); 66 % of control (endpoint: median tumor weight (est.), dose: 50.0 mg/kg/injection, schedule: Q07DX003 (ip), vehicle: other, higher = larger tumour). The T/C is, setting by setting: (endpoint: median tumor weight (est.), dose: 100.0 mg/kg/injection, schedule: Q07DX003 (ip), vehicle: other, higher = larger tumour) 56 % of control; (endpoint: median tumor weight (est.), dose: 200.0 mg/kg/injection, schedule: Q07DX003 (ip), vehicle: other, higher = larger tumour) 34 % of control.

Take `C=C1C(=O)OC2CC1CCC1(C)OC1CCC(C)=CCCC2(C)O` (configuration not stated): the T/C is 155 % of control (endpoint: median tumor weight (est.), dose: 3.75 mg/kg/injection, schedule: Q07DX002 (ip), vehicle: Klucel (hydroxypropylcellulose) (HPC), higher = larger tumour); 155 % of control (endpoint: median tumor weight (est.), dose: 7.5 mg/kg/injection, schedule: Q07DX002 (ip), vehicle: Klucel (hydroxypropylcellulose) (HPC), higher = larger tumour); 99 % of control (endpoint: median tumor weight (est.), dose: 30.0 mg/kg/injection, schedule: Q07DX002 (ip), vehicle: Klucel (hydroxypropylcellulose) (HPC), higher = larger tumour); 123 % of control (endpoint: median tumor weight (est.), dose: 60.0 mg/kg/injection, schedule: Q07DX002 (ip), vehicle: Klucel (hydroxypropylcellulose) (HPC), higher = larger tumour).

Regarding `COC1=CC(=O)N(C(=O)C2CSC(C(CO)NC(=O)c3csc(/C=N/O)n3)=N2)C1` (configuration not stated), the T/C was 114 % of control under setting [3], 110 % of control under setting [4], 150 % of control under setting [5] and 88 % of control under setting [6].

In the case of `Cc1nc(N)nc(N)c1-c1ccc(Cl)c(Cl)c1`, the T/C is 106 % of control (endpoint: median tumor weight (est.), dose: 1.25 mg/kg/injection, schedule: Q07DX002 (ip), vehicle: saline, higher = larger tumour); 81 % of control and 102 % of control (endpoint: median tumor weight (est.), dose: 2.5 mg/kg/injection, schedule: Q07DX002 (ip), vehicle: saline, higher = larger tumour); 50 % of control and 72 % of control (endpoint: median tumor weight (est.), dose: 5.0 mg/kg/injection, schedule: Q07DX002 (ip), vehicle: saline, higher = larger tumour); 68 % of control and 69 % of control and 83 % of control (endpoint: median tumor weight (est.), dose: 10.0 mg/kg/injection, schedule: Q07DX002 (ip), vehicle: saline, higher = larger tumour); 67 % of control (endpoint: median tumor weight (est.), dose: 10.0 mg/kg/injection, schedule: Q07DX002 (ip), vehicle: suspension in saline, higher = larger tumour); 46 % of control (endpoint: median tumor weight (est.), dose: 20.0 mg/kg/injection, schedule: Q07DX002 (ip), vehicle: suspension in saline, higher = larger tumour). The T/C (endpoint: median tumor weight (est.), dose: 80.0 mg/kg/injection, schedule: Q07DX002 (ip), vehicle: saline, higher = larger tumour) is 55 % of control.

Turning to `C=C(C)[C@@H]1CC[C@@H]2C(=CC[C@]3(C)C([C@H](C)CC/C=C(/C)C(=O)O)CC[C@@]23C)[C@@]1(C)CCC(=O)O` (some centres not stated), the T/C (endpoint: median tumor weight (est.), dose: 50.0 mg/kg/injection, schedule: Q07DX002 (ip), vehicle: saline + alcohol, higher = larger tumour) is 90 % of control; the T/C (endpoint: median tumor weight (est.), dose: 100.0 mg/kg/injection, schedule: Q07DX002 (ip), vehicle: saline + alcohol, higher = larger tumour) was 91 % of control; the T/C (endpoint: median tumor weight (est.), dose: 200.0 mg/kg/injection, schedule: Q07DX002 (ip), vehicle: saline + alcohol, higher = larger tumour) is 105 % of control; the T/C (endpoint: median tumor weight (est.), dose: 400.0 mg/kg/injection, schedule: Q07DX002 (ip), vehicle: saline + alcohol, higher = larger tumour) is 45 % of control.

In the case of `CCN(CC)CCOC(=O)Cc1cc(OC)cc2c(=O)cc(-c3ccccc3)oc12`, the T/C is 65 % of control under setting [7]; 82 % of control (endpoint: median tumor weight (est.), dose: 25.0 mg/kg/injection, schedule: Q07DX002 (ip), vehicle: Klucel (hydroxypropylcellulose) (HPC), higher = larger tumour); 56 % of control under setting [3]; 111 % of control under setting [4]; 104 % of control under setting [5].

With `Cc1cc2nc3[nH]c4ccccc4c3nc2cc1C`, the T/C by setting is: under setting [7], 164 % of control; under setting [3], 199 % of control; under setting [4], 172 % of control; under setting [5], 220 % of control; under setting [6], 223 % of control.

Turning to `CO[C@@H]1[C@H](O)CC[C@]2(CO2)[C@H]1[C@@]1(C)O[C@@H]1CC=C(C)C`, the T/C is 46 % of control and 55 % of control under setting [8]; 50 % of control and 61 % of control under setting [9]; 63 % of control and 68 % of control and 71 % of control under setting [10]; 92 % of control under setting [11].

As for `CC[N+](CC)(CC)CC`, the T/C was 96 % of control (endpoint: median tumor weight (est.), dose: 1.56 mg/kg/injection, schedule: Q07DX002 (ip), vehicle: saline with Tween-80, higher = larger tumour); 119 % of control under setting [8]; 86 % of control under setting [9]; 59 % of control under setting [12].

For the molecule `O=NN(CCCl)C(=O)NCCO`, the T/C is 75 % of control (endpoint: median tumor weight (est.), dose: 3.12 mg/kg/injection, schedule: Q07DX002 (ip), vehicle: water, higher = larger tumour); 18 % of control and 34 % of control (endpoint: median tumor weight (est.), dose: 12.5 mg/kg/injection, schedule: Q07DX002 (ip), vehicle: water, higher = larger tumour); 14 % of control (endpoint: median tumor weight (est.), dose: 25.0 mg/kg/injection, schedule: Q07DX002 (ip), vehicle: water, higher = larger tumour).

As to `Cc1ccc(S(=O)(=O)NC(=S)S)cc1`, the T/C reads like this: under setting [12], 108 % of control; (endpoint: median tumor weight (est.), dose: 25.0 mg/kg/injection, schedule: Q07DX002 (ip), vehicle: saline with Tween-80, higher = larger tumour) 54 % of control; under setting [10], 116 % of control; (endpoint: median tumor weight (est.), dose: 100.0 mg/kg/injection, schedule: Q07DX002 (ip), vehicle: saline with Tween-80, higher = larger tumour) 100 % of control; under setting [11], 60 % of control.

Turning to `Cc1cc(Nc2ccc3c(c2)OCO3)c2cc3c(cc2n1)OCO3`, the T/C under setting [3] was 86 % of control, the T/C under setting [4] was 85 % of control and the T/C under setting [5] is 36 % of control.

For the molecule `C=C(C)[C@H]1Cc2c(ccc3c2O[C@@H]2COc4cc(OC)c(OC)cc4[C@@H]2C3=O)O1`, the T/C (endpoint: median tumor weight (est.), dose: 2.0 mg/kg/injection, schedule: Q07DX003 (ip), vehicle: saline with Tween-80, higher = larger tumour) is 230 % of control and the T/C (endpoint: median tumor weight (est.), dose: 8.0 mg/kg/injection, schedule: Q07DX003 (ip), vehicle: saline with Tween-80, higher = larger tumour) was 98 % of control.
